Series [1] has as its system A549 cells. In words: MTT assay using MTX-Me2 and MTX-(PhiPr)2. It is filed as cell-based. The conditions noted are these: highest concentration (10 μM), 24 hours. The procedure: Next, we modified the two carboxylates in methotrexate (a potent anticancer and immunosuppressive drug) to afford the methyl (MTX-Me2) or Ph^iPr (MTX-(Ph^iPr)2) ester variants (FIG. 2b). A549 cells were cultured and treated with MTX-Me2 or MTX-(Ph^iPr)2 at various concentrations for 24 hours before they were subjected to MTT analyses. […] Statistical analysis for FIG. 3b, FIG. 3c and FIG. 3d was performed using a two-tailed t-test (α=0.05, **** P<0.001)
48-well plates were seeded with 30,000 A549 cells per well (500 μL of 60,000 cells/mL) and incubated at 37° C. with 5% CO2 for 24 hours. Media was removed and fresh serum-free RPMI 1640 containing […] of MTX-Me2 or MTX-(PriPr)2 were added (0.1% DMSO final v/v). The media was removed after 24 hours incubation and replaced with 500 μL of a 20:1 mixture of serum-free RPMI 1640 and (3-(4,5-dimethylthiazol2-yl)-2,5-diphenyl-tetrazolium bromide (MTT, 5 mg/mL stock in PBS). The cells were incubated for 2 hours under the same condition and then the medium was removed and replaced with DMSO (500 μL/well). The absorbance of each well was recorded at 555 nm on a microplate reader. Viability was calculated by the absorbance relative to the vehicle control.
On the technique in general: Tetrazolium dyes change colour on reduction, which living cells bring about.

The test system of series [2] is 4T1-Luc cells. Description: Ester stability in live 4T1-Luc cells, BL imaging. It is filed as cell-based, murine. Conditions: 10 μM. The procedure:
First, we prepared BL660-Me, a methyl ester derivative of BL660 as shown in FIG. 2a for comparison to the benzyl ester (4) of FIG. 1a. Next, we cultured 4T1 murine breast cancer cells, stably expressing the luciferase enzyme (4T1-Luc). The cells were then treated with a DMSO (dimethyl sulfoxide) vehicle control, BL660-Me or Compound (4) (FIG. 3a and FIG. 10a, b, c respectively?). Imaging was performed using the IVIS In Vivo Imaging System.
4T1-Luc cell was cultured in phenol red-free RPMI 1640 (ATCC) with 10% fetal bovine serum (FBS, Sigma Aldrich), and 1% penicillin/streptomycin (Corning).
Evaluation of BL660-Me and 4 in 4T1-Luc Cells. 4T1-Luc cells (180K) were seeded into 24-well plates and incubated for 24 hours. The cells were ˜85% confluent. The media was removed and replaced with serum-free RPMI 1640. An initial background scan was recorded on an IVIS imaging system in open mode where no filters were applied. Cells were then treated with DMSO (2.5 μL, 0.5%), BL660-Me, or compound 4 in DMSO (10 μM final concentration). After 30 minutes incubation at 37° C., bioluminescence was collected. ROIs were drawn around each well. The total luminescence count for each well for a given condition was averaged. The signal intensity was quantified using the Living Image Analysis Software.

A short description of series [3]: Hydrolytic stability of BL660 esters in PBS, luciferase BL readout. It is filed as physicochemical. Conditions: for rate of hydrolysis: 10 μM, PBS pH 7.4, 37° C., 1, 6 and 12 hours. The method, then: We began our analysis of stability by incubating BL660 esters of Compound (1), Compound (2), and Compound (3) at 37° C. in PBS (phosphate-buffered saline) (pH 7.4). After 1, 6, and 12 hours, luciferase was added (10mU, 37° C., pH 7.4) to initiate BL production. The rate of hydrolysis, reported as total luminescence counts per hour, indicates hydrolysis in descending order is: Compound (1) (13.9±1.4×10^3); Compound (2) (3.3±0.6×10^3), and Compound (3) (1.0±0.1×10^3) (FIG. 1b, wherein the esters are indicated on the horizontal axis) and FIG. 8 (wherein the respective timeline plots are identified beneath the horizontal axis as (1), (2), etc.). Luminescent counts were recorded using an IVIS In Vivo Imaging System. […] Without wishing to be bound by any theory, we speculate hydrolysis of (3) may involve an SN1 mechanism, thus favoring formation of a double benzylic carbocation.

The test system of series [4] is porcine liver esterase. Description: Esterase reactivity: treatment with porcine liver esterase, BL readout. It is filed as in vitro ADME. Conditions: 10 μM, porcine liver esterase 0.1 units/mL, 37° C., pH 7.4, 20, 40 and 60 minutes. The text has this: The enzymatic rates, reported as total luminescence counts per minute, in descending order are: Compound (1) (31.0±6.8×10^2), (3) (9.5±1.2×10^2), and (2) (0.6±0.1×10^2) (FIG. 1c and FIG. 9). The greater stability imparted by the aromatic ring is not surprising since esterase reactivity can be readily attenuated with bulkier substituents.

SMILES strings stand for the structures.

In general, viability refers to the share of living cells, or the viability signal relative to a control. A higher viability goes with less harm to the cells.

`CC(C)C(OC(=O)CCC(NC(=O)c1ccc(N(C)Cc2cnc3nc(N)nc(N)c3n2)cc1)C(=O)OC(c1ccccc1)C(C)C)c1ccccc1` (mixture of isomers) [MTX-(Ph^iPr)2]: in series [1], the viability was 100%.

For the compound `CCN(CC)c1ccc(C=CC=CC2=NC(C(=O)OC)CS2)cc1` (stereo not drawn) [BL660-Me], in series [2] (30 mins), the “luminescence relative to Compound (4)” value was 31 fold and the “luminescence relative to the vehicle” value stood at 55 fold. Also, in series [2] (30 mins at 37° C.), the total luminescence count is given as 94.1±5.9×10^3 total luminescence count.

Regarding `CCN(CC)c1ccc(C=CC=CC2=NC(C(=O)OCc3ccccc3)CS2)cc1` (stereo not drawn) [Compound (1)], the rate of hydrolysis in series [3] was 13.9±1.4×10^3 total luminescence counts per hour. In addition, the enzymatic rate in series [4] is recorded as 31.0±6.8×10^2 total luminescence counts per minute.

Consider `CCN(CC)c1ccc(C=CC=CC2=NC(C(=O)OC(c3ccccc3)c3ccccc3)CS2)cc1` (stereo not drawn) [Compound (2)], for which the rate of hydrolysis in series [3] is recorded as 3.3±0.6×10^3 total luminescence counts per hour. Moreover, the enzymatic rate in series [4] is reported as 0.6±0.1×10^2 total luminescence counts per minute.

As for `CCN(CC)c1ccc(C=CC=CC2=NC(C(=O)OC(C)c3ccccc3)CS2)cc1` (stereo not drawn) [Compound (3)], in series [3], the rate of hydrolysis is given as 1.0±0.1×10^3 total luminescence counts per hour. Moreover, the “effectiveness at blocking hydrolysis, methyl substituent of (3) versus phenyl group of (2)” value in series [3] (PBS pH 7.4, 37° C.) is listed as “over three-fold more effective at blocking hydrolysis”. In addition, in series [4], the enzymatic rate was 9.5±1.2×10^2 total luminescence counts per minute.

`COC(=O)CCC(NC(=O)c1ccc(N(C)Cc2cnc3nc(N)nc(N)c3n2)cc1)C(=O)OC` (stereo not drawn) [MTX-Me2, reference compound] showed a viability in series [1] of roughly 63%.

These data come from US20240158359A1, “HYDROLYSIS-RESISTANT ESTERS FOR DRUG AND IMAGING AGENT DELIVERY” (The Board of Trustees of the University of lllinois, priority 2022, published 2024).
